For one test, the system named is NOD mice. As to conditions: subcutaneous administration; cited from earlier work.
The test system of another test is BB-DP rats. The experiment in a line: Diabetes incidence and onset after neonatal oral DiaPep277 with conventional or HC diet. It counts as in vivo, rat. The procedure:
Experimental set-up: Group-housed BB-DP rats (breeding colony, Groningen, the Netherlands) were orally inoculated once per day with either placebo (aqua dist.) or Diapep277 at days 4, 5, 6 and 7 of life (black box in FIG. 1). Animals were treated in compliance with the principles of laboratory care (NIH publication no. 85-23, revised 1985) and the Dutch law on experimental animal care. Inoculation was done via a silicon-tube swallowed by the neonate and fluid was inoculated directly into the stomach. DiaPep277 was supplied by Peptor Ltd., Rehovot, Israel. It is an analog of the native 437-460 sequence of human hsp60, in which the existing cystein residues at positions 442 and 447 were replaced by valine, for better chemical stabilization. Per inoculation 300 μg/rat of Diapep277 in a volume of 300 μl was administered. At the age of 21 days (gray box in FIG. 1) rats were weaned either on a conventional, cereal-based diet (Hope Farms, rodent diet no. Rmh-B2181, Woerden, Netherlands) or on HC-diet, a modification of the AIN-93G diet containing 20% hydrolyzed casein (Pancase S; Redstar Bioproducts, Tara, Canada) as the source of aminoacids, 53% corn starch, 12% sucrose, 5% corn oil, 5% cellulose-type fiber (Solka-Floc; Teklad, Madison, Wis.) (Visser J. et al., 2003, Metabolism 52, 333-337, Scott F W et al., 1997, Diabetes 46, 589-598). In this study both sexes were used. In our colony 80% to 90% of the BB-DP rats spontaneously develop diabetes before the age of 130 days, with no gender differences. Body weights were measured three times per week. […] The degree of islet infiltration was measured using a Zeiss microscope and was rated as previously described (Visser J. et al., 2003, Metabolism 52, 333-337) with the addition of score 5 which is developed in our lab, to control for completely destroyed islets in severe insulitis. Per pancreas section, an average histological insulitis score was calculated by adding up the score of each islet and dividing it by the total number of islets counted. […]

Test [1] relates to spleen-derived lymphocytes. The conditions noted are these: splenocytes from DiaPep277-treated rats; stimulation 5 or 25 microgram/ml; planned second study.
Method: In this study, the preventive dose or control (PBS) is administered on days 4-14 to large groups of rats (30 per treatment arm), and followed up for signs of diabetes, as above. In addition, five rats of each group are sacrificed at 2 weeks, 1, 2, 3, 4 and 5 months of age, and at each time point the spleen is removed to determine the cytokine profile. Determination of the cytokine profile is performed by subjecting the spleen-derived lymphocytes to the following stimuli: None; Concanavalin A (1 microgram/ml); DiaPep277 (5 microgram/ml); DiaPep277 (25 microgram/ml).

No end group written: not given here.

Consider “VLGGGCALLRCIPALDSLTPANED (cysteine pairing not given here) [p277, residues 437-460 of human Hsp60]”, for which, in the test on NOD mice, the “development of diabetes (in words)” value was “prevented the development of diabetes”.
For the sequence VLGGGVALLRVIPALDSLTPANED [DiaPep277], the diabetes incidence in the test on BB-DP rats (BB-DP rats, oral 300 μg/rat/day at days 4-7 of life, diet from weaning (day 21), followed to 140 days) turned out to be 69%. For the same sequence, the “improved chance of not developing diabetes” value in the test on BB-DP rats (all animals receiving DiaPep277, endpoint analysis, χ^2) is recorded as 2.2 fold. Moreover, the “protection against diabetes (in words)” value with BB-DP rats (neonatal oral administration alone, conventional diet) is given as “did not lead to significant protection”. Besides, the “cytokine response of splenocytes on DiaPep277 stimulation (in words)” value in test [1] is “focused Th2/Treg response”.

The record behind these values is US8828922B2, “HSP therapy in conjunction with a low antigenicity diet” (Andromeda Biotech Ltd., priority 2004, dated 2014).
